What was measured:
[1] = system: Huh-7 HCV replicon cells (sub-line 5-15; genotype 1b); assay: Replicon ELISA cell based assay, genotype 1b; design: species or system HCV genotype 1b; settings: Hepatitis C virus, Huh-7 genotype 1b replicon (sub-line 5-15), 72 hours
Experimental: (§1) 100 μL of medium containing 10% FCS were added to each well of clear, flat-bottomed 96 well microplates, excepting wells in the top row. Test compound was diluted in assay medium to twice the final required starting concentration from a 40 mM stock solution in DMSO. 200 μL of the starting dilution were introduced into two wells each in the top row and doubling dilutions made down the plate by the sequential transfer of 100 μL aliquots with thorough mixing in the wells; the final 100 μL were discarded. The two bottom rows were not used for compound dilutions. Huh-7 HCV replicon cell monolayers nearing confluency were stripped from growth flasks with versene-trypsin solution and the cells were resuspended in assay medium at either 2×10^5 cells/mL (sub-line 5-15; genotype 1b; Lohmann, V., Komer, F., Koch, J-O., Herian, U., Thielmann, L. And Bartenschlager, R., 1999, Science, 285, pp 110-113) or at 3×10^5 cells/mL (genotype 1a; Gu, B., Gates, A. T., Isken, O., Behrens, S. E. and Sarisky, R. T., J. Virol., 2003, 77, 5352-5359). 100 μL of cell suspension were added to all wells and the plates incubated at 37° C. for 72 hours in a 5% CO2 atmosphere.
(§2) Following incubation, the assay medium was aspirated from the plates. The cell sheets were washed by gentle immersion in phosphate buffered saline (PBS), which was then aspirated off, and fixed with acetone:methanol (1:1) for 5 minutes. Following a further wash with PBS, 100 μL of ELISA diluent (PBS+0.05% v/v Tween 20+2% w/v skimmed milk powder) were added to all wells and the plates incubated at 37° C. for 30 minutes on an orbital platform. The diluent was removed and each well then received 50 μL of a 1/200 dilution of anti-HCV specific, murine, monoclonal antibody (either Virostat #1872 or #1877), except for wells in one of the compound-free control rows which received diluent alone to act as negative controls. The plates were incubated at 37° C. for 2 hours and washed 3 times with PBS/0.05% Tween 20, then 50 μL of horseradish peroxidase conjugated, anti-mouse, rabbit polyclonal serum (Dako #P0260), diluted 1/1000, were added to all wells. The plates were incubated for a further hour, the antibody removed and the cell sheets washed 5 times with PBS/Tween and blotted dry. The assay was developed by the addition of 50 μL of ortho-phenylenediamine/peroxidase substrate in urea/citrate buffer (SigmaFast, Sigma #P-9187) to each well, and colour allowed to develop for up to 15 minutes. The reaction was stopped by the addition of 25 μL per well of 2 M sulphuric acid and the plates were read at 490 nm on a Fluostar Optima spectrophotometer.
(§3) The substrate solution was removed and the plates were washed in tap water, blotted dry and the cells stained with 5% carbol fuchsin in water for 30 minutes. The stain was discarded and the cell sheets washed, dried and examined microscopically to assess cytotoxicity.
(§4) The absorbance values from all compound-free wells that had received both primary and secondary antibodies were averaged to obtain a positive control value. The mean absorbance value from the compound-free wells that had not received the primary antibody was used to provide the negative (background) control value. The readings from the duplicate wells at each compound concentration were averaged and, after the subtraction of the mean background from all values, were expressed as a percentage of the positive control signal. The quantifiable and specific reduction of expressed protein detected by the ELISA in the presence of a drug can be used as a measure of replicon inhibition. GraFit software was used to plot the curve of percentage inhibition against compound concentration and derive the 50% inhibitory concentration (IC50) for the compound.

[2] = system: Huh-7 HCV replicon cells (genotype 1a); assay: Replicon ELISA cell based assay, genotype 1a; design: species or system HCV genotype 1a; settings: Hepatitis C virus, Huh-7 genotype 1a replicon, 72 hours
Experimental: as §1, §2, §3, §4

Row | SMILES | IC50 [1] [µM] | IC50 [2] [µM]
1 | COc1cc(C(=O)N2[C@@H](c3nccs3)[C@@H](c3cnccn3)C[C@@]2(Cn2cccn2)C(=O)O)ccc1C(C)(C)C (single isomer, unassigned; enantiomer a) [Example 12] | < 0.1 | < 10
2 | COc1cc(C(=O)N2[C@@H](c3ncc(C)s3)[C@@H](c3cnccn3)C[C@@]2(Cc2nccs2)C(=O)O)ccc1C(C)(C)C (single isomer, unassigned; enantiomer a) [Example 14] | < 0.1 | < 10
3 | COc1cc(C(=O)N2[C@@H](c3ncc(C)s3)[C@@H](c3cnccn3)C[C@@]2(Cc2cscn2)C(=O)O)ccc1C(C)(C)C (single isomer, unassigned; enantiomer a) [Example 16] | < 0.1 | < 10

— patent US20090227600A1, “4-(PYRAZINE-2-YL) -PYRROLIDINE -2-CARBOXYLIC ACID COMPOUNDS AND DERIVATIVES THEREOF AS HEPATITIS C VIRUS INHIBITORS” (priority 2004, published 2009)
